pIC50: −log10 of the molar value. Calls of active or inactive are those of the source. No cut-off for these calls is given here.
Key:
[1] = Inhibition of sodium/potassium ATPAse
[2] = Inhibition of goat Ca2+-ATPase assessed as liberation of inorganic phosphate preincubated for 5 mins measured after 30 mins following ATP addition by colorimetric analysis in presence of Mg2+; design: species or system Capra hircus; conditions: read-out: I50
[3] = species: Capra hircus; test: Inhibition of goat Ca2+-ATPase assessed as liberation of inorganic phosphate preincubated for 5 mins measured after 30 mins following ATP addition by colorimetric analysis in absence of Mg2+ and 300 uM verapamil
[4] = species: Capra hircus; test: Inhibition of goat Ca2+-ATPase assessed as liberation of inorganic phosphate preincubated for 5 mins measured after 30 mins following ATP addition by colorimetric analysis in presence of Mg2+ and 300 uM verapamil
[5] = Inhibition of goat Ca2+-ATPase assessed as liberation of inorganic phosphate preincubated for 5 mins measured after 30 mins following ATP addition by colorimetric analysis in absence of Mg2+; design: species or system Capra hircus; conditions: read-out: I50

In the case of CCOC(=O)C1=C(C)NC(=O)NC1c1cccc([N+](=O)[O-])c1 (stereo not given), the inhibition [1] was “inactive”, the pIC50 [2] was 3.88 and the inhibition [3] was “Active”. The inhibition [4] was “Active” and the pIC50 [5] was 3.55.

For CCOC(=O)C1=C(C)NC(=O)NC1c1ccccc1Cl (stereo not given), the inhibition [1] was “inactive”, the pIC50 [2] was 3.57 and the inhibition [3] was “Active”. For the same compound, the inhibition [4] was “Active” and the pIC50 [5] was 3.61.

For CCOC(=O)C1=C(C)NC(=O)NC1c1ccccc1 (stereo not given), the inhibition [1] was “inactive”, the pIC50 [2] was 3.65 and the inhibition [3] was “Active”. The inhibition [4] was “Active” and the pIC50 [5] was 3.65.

For CCOC(=O)C1=C(C)NC(=O)NC1c1ccc(O)cc1 (stereo not given), the inhibition [1] was “inactive”, the pIC50 [2] was 3.54 and the inhibition [3] was “Active”. For the same compound, the inhibition [4] was “Active” and the pIC50 [5] was 3.69.

— ChEMBL document CHEMBL2040738, “Regioselective N1-alkylation of 3,4-dihydropyrimidine-2(1H)-ones: screening of their biological activities against Ca(2+)-ATPase” (Eur J Med Chem, 2012)
